Measurements published in PMC5162400, “Discovery of novel inhibitors disrupting HIF-1α/von Hippel–Lindau interaction through shape-based screening and cascade docking” (PeerJ, 2016).

What was measured:
[1] = target: T1, pVHL (Homo sapiens, UniProt P40337); assay: Fluorescence polarization binding assay (FAM-DEALA-Hyp-YIPD displacement from V1-213CB); conditions: inhibition of HIF-1α/pVHL interaction, mean ± SEM
Procedure: The fluorescence intensities parallel (Intparallel) and perpendicular (Intperpedicular) to the plane of excitation were measured in black 96-well NBS assay plates (Greiner Microlon) at room temperature. The plate was then shaken for 1 min and centrifuged for 1 min. […] The inhibition percentage was determined by normalizing to maximum and minimum polarization and graphed against the log [VL].

[2] = target: T1, pVHL; set-up: method as in earlier work; conditions: native ligands of pVHL crystal complexes, labelled by PDB ID, ref Buckley et al., 2012b, Van-Molle et al., 2012a, Dias et al., 2014, Galdeano et al., read-out: Kd of native ligand; cited from earlier work

T1 sequence (P40337 whole entry): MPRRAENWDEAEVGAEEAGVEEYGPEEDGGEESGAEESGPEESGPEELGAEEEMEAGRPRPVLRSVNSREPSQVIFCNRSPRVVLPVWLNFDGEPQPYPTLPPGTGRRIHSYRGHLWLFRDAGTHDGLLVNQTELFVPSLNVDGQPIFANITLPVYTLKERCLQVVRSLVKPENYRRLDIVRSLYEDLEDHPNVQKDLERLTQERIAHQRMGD
T1 sequence (Q15369 whole entry partner): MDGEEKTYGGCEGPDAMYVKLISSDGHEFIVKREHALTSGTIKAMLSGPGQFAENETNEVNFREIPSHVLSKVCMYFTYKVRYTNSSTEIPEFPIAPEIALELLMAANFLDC
T1 sequence (Q15370 whole entry partner): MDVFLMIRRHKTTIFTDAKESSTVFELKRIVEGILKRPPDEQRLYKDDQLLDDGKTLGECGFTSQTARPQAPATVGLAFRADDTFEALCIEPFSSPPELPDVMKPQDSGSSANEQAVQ

| IC50 [1] [nM] | SMILES | Kd [2] [nM] |
| --- | --- | --- |
| 102000 ± 6130 | c1ccc(-c2ccc(-c3nc4ccc(-c5ccccc5)cc4o3)cc2)cc1 [Compound 6] |  |
| 2000 ± 140 | CC1=NN(c2ccccc2)C(=O)/C1=N\Nc1ccc(N2CCOCC2)cc1 [Compound 9] |  |
|  | Cc1ncsc1-c1ccc(CNC(=O)C2CC(O)CN2C(=O)c2cccc(N)c2C)cc1 (stereo not drawn) [Compound 4B9K] | 700 |
